Test results: US10206398B2, “Five-membered C-N-attached aryl sulphide and aryl sulphoxide derivatives as pesticides” (BAYER CROPSCIENCE AKTIENGESELLSCHAFT, priority 2014, dated 2019)
Read-outs that look alike come from different tables or passages of the source.

Tests used:
[1] = system: Tetranychus urticae; experiment: Tetranychus urticae - spray test, OP-resistant (bean leaf discs, 6 days); type: in vivo; details: after 6 days; for pest or weed control at 500 g/ha: Tetranychus urticae, foliar, 144 h, read-out: efficacy (spider mites killed)
Protocol: 5. Tetranychus urticae—Spray Test, OP-Resistant
Solvent: 78.0 parts by weight of acetone
• 1.5 parts by weight of dimethylformamide Emulsifier: alkylaryl polyglycol ether
To produce a suitable preparation of active compound, 1 part by weight of active compound is dissolved using the stated parts by weight of solvent and made up with water containing an emulsifier concentration of 1000 ppm until the desired concentration is attained. To produce further test concentrations, the preparation is diluted with emulsifier-containing water.
Discs of bean leaves (Phaseolus vulgaris) infested with all stages of the greenhouse red spider mite (Tetranychus urticae) are sprayed with an active compound preparation of the desired concentration.
After 6 days, the efficacy in % is determined. 100% means that all the spider mites have been killed; 0% means that no spider mites have been killed.

[2] = log P determination by HPLC on reversed-phase columns (C 18), analogous to OECD Guideline 117; type: physicochemical; details: for logP[a]: method [a]; for logP[b]: method [b]; for chromatographic logP: reversed-phase HPLC column (C 18)
Protocol: The log P values were determined analogously to OECD Guideline 117 (EC Directive 92/69/EEC) by HPLC (high-performance liquid chromatography) using reversed-phase columns (C 18), by the following methods: [a] The LC-MS determination in the acidic range was effected at pH 2.7 with 0.1% aqueous formic acid and acetonitrile (contains 0.1% formic acid) as eluents; linear gradient from 10% acetonitrile to 95% acetonitrile. log P[a] is also referred to as log P(HCOOH). [b] LC-MS determination in the neutral range was effected at pH 7.8 with 0.001 molar aqueous ammonium hydrogencarbonate solution and acetonitrile as eluents; linear gradient from 10% acetonitrile to 95% acetonitrile. log P[b] is also referred to as log P(neutral). Calibration is effected with solutions of a homologous series of unbranched alkan-2-ones (having 3 to 16 carbon atoms) with known log P values (log P values determined on the basis of the retention times by linear interpolation between two successive alkanones).

[3] = pH 2.7, HPLC, acidic range, pH 2.7, 0.1% aqueous formic acid and acetonitrile, read-out: log P(HCOOH)
[4] = pH 2.7, Table 3, HPLC, acidic range, pH 2.7, read-out: logP[a]
[5] = pH 7.8, HPLC, neutral range, pH 7.8, 0.001 molar aqueous ammonium hydrogencarbonate and acetonitrile, read-out: log P(neutral)
[6] = pH 7.8, Table 3, HPLC, neutral range, pH 7.8, read-out: logP[b]
[7] = pH 2.7, method [a], read-out: logP[a]
[8] = pH 7.8, method [b], read-out: logP[b]

SMILES | efficacy (spider mites killed) ([1]; 500 g/ha) [%] | logP[a] [2] | logP[b] [2] | other results
Cc1cc(F)c(N2C(=O)CN(C(=O)N3CCN(C)CC3)C2=O)cc1[S+]([O-])CC(F)(F)F (centres unmarked) [compound 127] | 100 | 1.72 | 1.61 | 
Cc1cc(F)c(N2C(=O)CNC2=O)cc1[S+]([O-])CC(F)(F)F (centres unmarked) [IIb-1] |  |  |  | pest or weed control at 500 g/ha ([1]; 500 g/ha): 100%; chromatographic logP [2, 3]: 1.33; chromatographic logP [2, 4]: 1.33; chromatographic logP [2, 5]: 1.31; chromatographic logP [2, 6]: 1.31
Cc1cc(F)c(N2C(=O)CN(C(=O)Nc3ccccc3)C2=O)cc1SCC(F)(F)F [compound 16] | 100 | 3.82 | 3.71 | 
Cc1cc(F)c(N2C(=O)CNC2=O)cc1SCC(F)(F)F [IIa-1] |  |  |  | pest or weed control at 500 g/ha ([1]; 500 g/ha): 90%; chromatographic logP [2, 3]: 2.11; chromatographic logP [2, 4]: 2.11; chromatographic logP [2, 5]: 2.08; chromatographic logP [2, 6]: 2.08
Cc1cc(F)c(N2C(=O)CN(C(=O)NCc3ccccc3)C2=O)cc1SCC(F)(F)F [compound 18] | 90 | 3.64 | 3.53 | 
O=C(Nc1cccc(C(F)(F)F)c1)N1CC(=O)N(c2cc(SCC(F)(F)F)c(Cl)cc2Cl)C1=O [compound 110] | 100 | 4.56 | 4.61 | 
Cc1cc(C)c(N2C(=O)CN(C(=O)NC(C)(C)C)C2=O)cc1SCC(F)(F)F [compound 33] | 100 | 3.86 | 3.89 | 
O=C(NCc1ccccc1)N1CC(=O)N(c2cc([S+]([O-])CC(F)(F)F)c(Cl)cc2Cl)C1=O (racemic) [compound 115] | 100 | 3.23 | 3.29 | 
Cc1cc(F)c(N2C(=O)CN(C(=O)NC3CC3)C2=S)cc1[S+]([O-])CC(F)(F)F (centres unmarked) [Ex. No. 4, N-Cyclopropyl-3-[2-fluoro-4-methyl-5-(2,2,2-trifluoroethylsulphinyl)phenyl]-4-oxo-2-thioxoimidazolidine-1-carboxamide] |  |  |  | pest or weed control at 500 g/ha ([1]; 500 g/ha): 100%; chromatographic logP [2, 3]: 2.64; chromatographic logP [2, 7]: 2.64; chromatographic logP [2, 5]: 2.65; chromatographic logP [2, 8]: 2.65
O=C(NC1CC1)N1CC(=O)N(c2cc(SCC(F)(F)F)c(Cl)cc2Cl)C1=O [compound 104] | 100 | 3.3 | 3.37 | 
Cc1cc(C)c([S+]([O-])CC(F)(F)F)cc1N1C(=O)CN(C(=O)Nc2cccc(Cl)c2)C1=O (racemic) [compound 69] |  | 3.37 | 3.33 | efficacy (spider mites killed) ([1]; 100 g/ha): 90%
CCNC(=O)N1CC(=O)N(c2cc([S+]([O-])CC(F)(F)F)c(C)cc2C)C1=O (centres unmarked) [compound 32] | 100 | 2.14 | 2.12 | 
COCCNC(=O)N1CC(=O)N(c2cc([S+]([O-])CC(F)(F)F)c(C)cc2F)C1=O (racemic) [compound 82] | 100 | 1.97 | 1.94 | 
Cc1cc(Cl)c(N2C(=O)CN(C(=O)Nc3ccc(F)cc3)C2=O)cc1SCC(F)(F)F [compound 94] | 100 | 4.05 | 3.96 | 
CCNC(=O)N1C(=O)N(c2cc([S+]([O-])CC(F)(F)F)c(C)cc2F)C(=O)C1(C)C (racemic) [compound 83] | 90 | 2.73 | 2.70 | 
O=C(Nc1ccc(F)cc1)N1CC(=O)N(c2cc([S+]([O-])CC(F)(F)F)c(Cl)cc2Cl)C1=O (racemic) [compound 116] | 100 | 3.39 | 3.46 | 
O=C(Nc1cccc(Cl)c1)N1CC(=O)N(c2cc([S+]([O-])CC(F)(F)F)c(Cl)cc2Cl)C1=O (racemic) [compound 117] | 100 | 3.81 | 3.89 | 
Cc1cc(F)c(N2C(=O)N(C(=O)NCc3ccccc3)C(C)(C)C2=O)cc1SCC(F)(F)F [compound 77] | 100 | 4.37 | 4.33 | 
O=C(Nc1cccc(Cl)c1)N1CC(=O)N(c2cc(SCC(F)(F)F)c(Cl)cc2Cl)C1=O [compound 109] | 90 | 4.49 | 4.56 | 

SMILES | efficacy (spider mites killed) ([1]; 500 g/ha) [%] | logP[a] [2] | logP[b] [2] | other results
Cc1cc(F)c(N2C(=O)N(C(=O)NCC(C)C)C(C)(C)C2=O)cc1[S+]([O-])CC(F)(F)F (racemic) [compound 86] | 100 | 3.41 | 3.39 | 
Cc1cc(F)c(N2C(=O)CN(C(=O)NCC(C)C)C2=S)cc1[S+]([O-])CC(F)(F)F (centres unmarked) [Ex. No. 13] | 90 | 3.33 | 3.24 | 
Cc1cc(C)c(N2C(=O)CN(C(=O)NC(C)C)C2=O)cc1SCC(F)(F)F [compound 22] | 100 | 3.48 | 3.38 | 
Cc1cc(C)c([S+]([O-])CC(F)(F)F)cc1N1C(=O)CN(C(=O)Nc2cccc(CC(F)(F)F)c2)C1=O (racemic) [compound 97] | 90 | 3.57 | 3.47 | 
Cc1cc(C)c(N2C(=O)CN(C(=O)NC3CC3)C2=O)cc1SCC(F)(F)F [compound 49] | 100 | 1.36 | 2.81 | 
O=C(NCC(F)(F)F)N1CC(=O)N(c2cc([S+]([O-])CC(F)(F)F)c(Cl)cc2Cl)C1=O (racemic) [compound 114] | 100 | 2.88 | 2.91 | 
Cc1cc(F)c(N2C(=O)N(C(=O)NC3CC3)C(C)(C)C2=O)cc1SCC(F)(F)F [Ex. No. 74, N-Cyclopropyl-3-[2-fluoro-4-methyl-5-(2,2,2-trifluoroethylsulphanyl)phenyl]-5,5-dimethyl-2,4-dioxoimidazolidine-1-carboxamide] |  |  |  | pest or weed control at 500 g/ha ([1]; 500 g/ha): 100%; chromatographic logP [2, 3]: 3.76; chromatographic logP [2, 7]: 3.76; chromatographic logP [2, 5]: 3.72; chromatographic logP [2, 8]: 3.72
Cc1cc(C)c(N2C(=O)CN(C(=O)NCC(C)C)C2=O)cc1SCC(F)(F)F [compound 34] | 100 | 3.80 | 3.69 | 
Cc1cc(Cl)c(N2C(=O)CN(C(=O)NCc3ccccc3)C2=O)cc1SCC(F)(F)F [compound 57] | 100 | 3.81 | 3.61 | 
Cc1cc(F)c(N2C(=O)CN(C(=O)NC(C)C)C2=S)cc1[S+]([O-])CC(F)(F)F (centres unmarked) [compound 14] | 100 | 3.01 | 2.93 | 
CCNC(=O)N1CC(=O)N(c2cc(SCC(F)(F)F)c(C)cc2C)C1=O [compound 31] | 90 | 3.14 | 3.04 | 
Cc1cc(F)c(N2C(=O)C(C)N(C(=O)NCc3ccccc3)C2=O)cc1[S+]([O-])CC(F)(F)F (mixture of isomers) [compound 90] | 100 | 3.12 | 3.05 | 
Cc1cc(Cl)c(N2C(=O)CN(C(=O)Nc3ccc(F)cc3)C2=O)cc1[S+]([O-])CC(F)(F)F (racemic) [compound 100] | 100 | 3.17 | 3.09 | 
Cc1cc(Cl)c(N2C(=O)CN(C(=O)NCC(C)C)C2=O)cc1[S+]([O-])CC(F)(F)F (racemic) [compound 65] |  | 2.95 | 2.88 | efficacy (spider mites killed) ([1]; 100 g/ha): 90%
Cc1cc(F)c(N2C(=O)CN(C(=O)N(C)C)C2=O)cc1[S+]([O-])CC(F)(F)F (centres unmarked) [compound 133] | 100 | 1.75 | 1.78 | 
Cc1cc(F)c(N2C(=O)C(C)N(C(=O)NC(C)C)C2=O)cc1SCC(F)(F)F (centres unmarked) [compound 26] | 100 | 3.78 | 3.68 | 
Cc1cc(F)c(N2C(=O)CN(C(=O)N3CCS(=O)(=O)CC3)C2=O)cc1[S+]([O-])CC(F)(F)F (centres unmarked) [compound 134] | 90 | 1.66 | 1.69 | 
Cc1cc(C)c([S+]([O-])CC(F)(F)F)cc1N1C(=O)CN(C(=O)NCC(F)(F)F)C1=O (centres unmarked) [compound 61] | 100 | 2.54 | 2.47 | 
